Experimental findings from US20060241067A1, “Methods For inhibiting angiogenesis, cell migration, cell adhesion, and cell survival” (priority 2002, published 2006) are described below.

SMILES strings stand for the structures.

In one assay the test system is protein kinase A. Nature of the assay: PKA activity assay in HUVECs. The format is cell-based, human. The settings on record: for PKA activity in endothelial cells: 10 μM PTHrP or 250 μM dibutyryl cAMP. The procedure:
PKA activity was measured in HUVECs essentially as previously described in Kim et al (S. Kim et al., Amer. J. Biol. Chem., 275:33920-33928 (02000)). HUVECs were placed in suspension, allowed to attach to ECM protein coated plates in the absence or presence of anti-integrin antibodies or were treated with 10 μM PTHrP and/or 250 μM cAMP. PKA activity was measured at various times from 0-4 hrs (e.g., 2-30 min).
Plates were washed and blocked in 3% bovine serum albumin for 1 hour at 37° C. HUVECS were trypsinized and resuspended in adhesion buffer (Hanks balanced salt solution supplemented with 10 mM HEPES, pH 7.4, 2 mM MgCl2, 2 mM CaCl2, 0.2 mM MnCl2, 1% BSA. Cells were plated on matrix protein coated plates in culture medium or in the presence of 25 μg/ml anti-α5β1, anti-αvβ3 or anti-α2β1 antibodies for various times from 0 minutes to 4 hours. Plates were washed with phosphate buffered saline and cells were extracted with cold extraction buffer (50 mM Tris, pH 7.5, 5 mM EDTA, 25 μg/ml aprotinin and 25 μg/ml leupeptin). Protein Kinase A activity was assessed using a kit from Gibco BRL. Briefly, equal volumes of lysate and reaction mixture containing final concentrations of 50 mM Tris, pH 7.5, 10 mM MgCl2, 0.25 mg/ml BSA, 50 μM Kemptide (a protein kinase A substrate), 3000 Ci/mmol (γ^32 P) ATP and 100 μM ATP were combined for 5 minutes at 30° C. Total PKA in each sample was measured by performing the assay in the presence of 10 μM cAMP. Background PKA activity in test and total PKA samples were determined by performing the assay in the presence of a PKA inhibitor peptide, PKI (6-22) amide. Twenty μl samples of reaction mixtures were spotted onto phosphocellulose discs and washed repeatedly with 1% (v/v) phosphoric acid in water. Incorporated radioactivity was determined by scintillation counting. Activated PKA was calculated from the ratio of pmol/min test sample PKA to pmol/min total PKA. PKA activity in triplicate samples was measured and experiments were repeated at least three times.
In another embodiment, PKA assays were performed with a kit from Calbiochem (San Diego, Calif.). Cell lysates were incubated in ELISA plates coated with a PKA peptide substrate, then incubated with anti-phosphoserine antibodies. Bound antibody was detected after incubation with anti-rabbit IgG-horse radish peroxidase. Statistical analyses were performed using Student's t-test.

In a further assay the test system is HUVECS. Nature of the assay: Annexin V-FITC staining of HUVECs (apoptosis). The settings on record: cells on vitronectin, PTHrP, 250 μM dibutyryl cAMP or transfection. In kind it is cell-based, human. The procedure:
Plates were also coated with […] goat anti-mouse IgG (Southern Biotechnology Associates, Inc., Birmingham, Ala.) at 37° C. for 2 h, rinsed, blocked with denatured BSA, and then incubated with […] anti-a5b1 or control IgG (anti-MHC) at 4° C. for 16 hrs. HUVECs were incubated on plates in the presence or absence of 10 mg/ml anti-α5β1, -αvβ3, -α2β1, or -MHC for 0-24 hrs. In some experiments, HUVECs were incubated with antibodies and […] caspase-3, -8 or -9 inhibitors or vehicle control (0.5% DMSO). Cells were then incubated with Annexin V-FITC for 15 min at room temperature in the dark. Washed cells were fixed in 1% paraformaldehyde, then incubated in DAPI. The percentage of Annexin positive cells in 5 microscopic fields was determined at 200× magnification by fluorescence microscopy.
HUVECs were plated for 24 h on ECM protein-coated plates in the presence of anti-αvβ3 or anti-α5β1, 1 μM HA1004 (a PKA inhibitor), and anti-αvβ3 or anti-α5β1 with 1 μM HA1004. Cells were stained with FITC-Annexin V or immunoblotted with anti-cleaved caspase 3 antibodies as described above. 5×10^6 HUVECs were electroporated in 300 μl of EGM with 30 μg of DNA (20 μg dnPKA or PKAcat plasmids, 2 μg N1-GFP and 8 μg pBluescript) at 300 V, 450 μF as previously described (Dormond et al. (2001) Nature Med. 7,1041-7). Expression of transgenes was determined by Western blotting of cell lysates with anti-V5 and anti-GFP antibodies. Transfection efficiency was quantified by determining the percent of cells that were co-transfected with GFP-expression vectors. Eighty-percent transfection efficiency was generally achieved using this electroporation method.

For assay [1], the system named is chick chorioallantoic membrane (CAM). Nature of the assay: Apoptosis markers in CAM blood vessels in vivo (Annexin V, cleaved caspases, TUNEL, DNA gels). Further details: species or system chicken. The settings on record: bFGF-stimulated CAMs. As to the method:
CAM assays were performed as described (Kim et al. (2000) Am. J. Path. 156:1345-1362). Saline or bFGF stimulated CAMs were treated for 24 h with 20 μg anti-α5β1, anti-αvβ3 or control antibodies and then injected intravenously with 50 μl Annexin V-FITC. CAMs were harvested after 2 h, then analyzed by confocal microscopy. Alternatively, CAMs treated as above were excised, minced on ice, and treated with 0.1% dispase/0.1% collagenase for 1 h at 37° C. Single cell suspensions were incubated with FITC-Annexin V and analyzed as described above. bFGF stimulated CAMs were also treated with anti-α5β1 or anti-αvβ3 in the presence or absence of 500 μM caspase-3, -8 or -9 inhibitors. bFGF stimulated CAMs were also transfected with 4 μg N1-GFP, dnPKA or PKAcat expression plasmids. Freshly excised CAMs were homogenized in ice cold RIPA buffer containing protease inhibitors and immunoblotted to detect intact and cleaved caspase 3 or 8. For all treatment groups, n=10. CAMs were fixed with 3.7% paraformaldehyde prior to excision. The average number of blood vessel branch points per treatment group+/−SEM is presented. Some excised CAMs were cryopreserved, cut into 5 μm sections, immunostained with anti-cleaved caspase 3, anti-cleaved caspase 8 and anti-VFW antibodies (to detect blood vessels). CAMs were also stained by the TUNEL method to detect fragmented DNA.

The mark [2] stands for this setting: after stimulation of endothelial cells.

With `CCCC(=O)Nc1ncnc2c1ncn2[C@@H]1O[C@@H]2COP(=O)(O)O[C@H]2[C@H]1OC(=O)CCC` [dibutyryl cAMP], the “PKA activity in endothelial cells” value with protein kinase A was “rapidly stimulate PKA activity in endothelial cells”; with protein kinase A (listed as cell permeable cAMP), “activates PKA”. Besides, in the assay with protein kinase A (setting [2]), the “time at which PKA activation is detected” value was 2 min. Also, the “time of maximal PKA activity” value in the assay on protein kinase A (setting [2]) came out at 15 min. Moreover, the “apoptosis of endothelial cells (annexin V positive cells)” value in the assay on HUVECS was “induced apoptosis in endothelial cells”; in the assay with HUVECS (listed as cAMP), “significantly induce apoptosis”. Moreover, in assay [1], the “endothelial cell apoptosis in vivo (TUNEL staining)” value was “induces endothelial cell apoptosis in vivo”.
